# What was measured:
# [1] = system: antiserum raised to Immunogen I (Hapten A-BTG); test: Competitive ELISA microtiter plate assay (Example 19), antiserum raised to Immunogen I, Hapten A-HRP conjugate as detection reagent; assay type: binding, sheep; settings: for binding to the antibody produced from Immunogen I: result in words
# Procedure: Aqueous solutions of the immunogens prepared in examples 5 and 13 were formulated with Freund's Complete Adjuvant (FCA) to form emulsions consisting of 2mg/ml Immunogen I and 2mg/ml of Immunogen II in 50%(v/v) FCA. Three sheep were immunised with each emulsion (1° immunisations), 0.25ml being intramuscularly injected at four sites in the rump of each animal. Subsequent immunisations (boosts 2-8) contained 1mg/ml Immunogen I and 1mg/ml Immunogen II. All boosts were emulsified in 50%(v/v) Freund's Incomplete Adjuvant (FIA) and administered to the appropriate sheep in the same manner as the 1° immunisations, at monthly intervals. Blood sampling took place 7-14 days after each boost. Each sample was processed to produce antiserum, which was further purified by caprylic acid and ammonium sulphate precipitation to yield an immunoglobulin (Ig) fraction. The Ig fraction was evaluated by competitive ELISA microtiter plate assay, as described in example 19 below.
# Example 19: Development of competitive ELISA for JWH synthetic cannabinoids and metabolites. • (a) The wells of an enhanced binding 96 well polystyrene microtiter plate were coated with the Ig fraction of the antiserum raised to Immunogen I (Hapten A-BTG - example 5) and diluted in 10mM Tris, pH8.5 (125µl/well). The appropriate antibody coating concentration was determined using standard ELISA checkerboard techniques. The plate was incubated for 2 hours at 37°C, washed 4 times over a 10-minute period with Tris buffered saline containing Tween 20 (TBST) and tapped dry. Standard solutions of JWH synthetic cannabinoids, metabolites and selected molecules were prepared in TBST and 50µl of each was added to the appropriate wells. 75µl of conjugate (Hapten A-HRP) diluted in Tris buffer containing EDTA, D-mannitol, sucrose, thimerosal and BSA, was added to each of the wells. The appropriate dilution of conjugate was also determined using standard ELISA checkerboard techniques. The plate was incubated at 25°C for 1 hour. The excess unbound conjugate was removed by washing 6 times over a 10-minute period with TBST and tapped dry. 125µl of tetramethylbenzedine (TMB) substrate solution was added to each well of the plate that was then incubated for 15-20 minutes in the dark at room temperature. The reaction was terminated by addition of 125µl of 0.2M sulphuric acid to each well. The absorbance was then measured at 450nm using a microtiter plate reader. Employing each series of standards, calibration curves were generated and these were used to determine the specificity of the immunoassay for the JWH synthetic cannabinoids, metabolites and selected molecules. The results of this study are presented in Tables 1 to 3, cross-reactivity being calculated according to the following formula: %CR = […] /IC50,CR X 100 [formula] Where %CR is the percentage cross-reactivity, IC50, YWH-018 is the concentration of JWH-018 that causes 50% displacement of signal and IC50, CR is the concentration of JWH synthetic cannabinoid/metabolite/selected molecule that causes 50% displacement of signal.
# Table 1: Data generated from a competitive microtiter plate assay for JWH synthetic cannabinoids and metabolites, employing antiserum raised to Immunogen II (Hapten B-BTG) and conjugate (Hapten A-HRP) as detection reagent. (b) In a similar manner to that described in Example 19(a), the wells of a 96 well microtiter plate were coated with the Ig fraction of the antiserum raised to Immunogen II ([…]). Conjugate (Hapten A-HRP) was employed as a detection reagent. […]
# [2] = system: Antibody to Immunogen II; test: Competitive ELISA (Example 36), antibody RS1833B12, tracer ESC4555/LK959, standard JWH-018; assay type: binding, sheep
# Procedure: An aqueous solution of each immunogen was formulated with Freund's Complete Adjuvant (FCA) to form an emulsion consisting of 2mg/ml* immunogen in 50% (v/v) FCA. Three sheep were immunised with this emulsion (1° immunisation), 0.25ml being intramuscularly injected at each of four sites in the flank of each animal. Subsequent immunizations (boosts) contained 1mg/ml* immunogen. All boosts were emulsified in 50% (v/v) Freund's Incomplete Adjuvant (FIA) and were administered in the same manner as the 1° immunisation, at monthly intervals. Blood sampling took place 7 to 14 days after each boost. *The general procedure for immunogen administration is outlined above, however, it was necessary to deviate from this protocol in some cases, due to reduced immunogen concentrations (Immunogens II, IV, VII and VIII) and/or amount available (Immunogen VIII). Any deviations from the protocol described are outlined in Table 1A below and highlighted in bold. Table 1A: Amount and volume of immunogens administered for primary and subsequent boosts
# The appropriate antibody coating dilution was determined using standard ELISA checkerboard techniques. The plate was incubated overnight at 4°C, washed 4 times over 10 minutes with Tris buffered saline containing Tween 20 (TBST) and tapped dry. […] 75µl of conjugate (appropriate hapten-HRP) diluted in Tris buffer (pH 7.2) containing EDTA, D-mannitol, sucrose, thimerosal and BSA, was added to each of the wells. The appropriate dilution of conjugate was also determined using standard ELISA checkerboard techniques. The plate was incubated at 25°C for 1 hour. Excess unbound conjugate was removed by washing 6 times over a 10 minute period with TBST. 125µl of tetramethylbenzidine (TMB) substrate solution was added to each well of the plate that was then incubated for 20 minutes in the dark at room temperature. The reaction was terminated by addition of 125µl 0.2M H2SO4 to each well. The absorbance was then measured at 450nm using a microtiter plate reader. The data are inputted to a computer program called 'KC Junior'. It is a 4 parameter fit curve and allow the calculatation of concentrations between the standard runs.
# In a similar manner to that described above, the wells of a 96-well microtiter plate were coated with the IgG fraction of the antiserum raised to Immunogens I or II.
# The data set our in Tables 3 and 4 are generated using antibodies raised against the indicated Immunogens in a competitive binding assay with the indicated tracers, using the indicated standards: Table 2
# Using the calibration curves generated and employing a single level of cross reactants, these were used to determine the cross-reactivity of each immunoassay with these substances. These are the standards used for the IC50 and cross-reactivity data generation • Immunogen I - JWH-018 • Immunogen II - JWH-018 • Immunogen IV - JWH-018 • Immunogen VII - JWH-015 • Immunogen VIII - JWH-018 Table 4: Cross reactivity of the competitive ELISAs for synthetic cannabinoids and their metabolites
# [3] = Table 2, 40 ng/ml highest concentration tested
# [4] = Table 2, CR based on 100% for JWH-018
# [5] = Cross-reactants at 100 ng/ml, Antibody to Immunogen II
SMILES,"% Cross-reactivity [1, 4]","%B/B0 [2, 5] [%]","IC50 [1, 3] [ng/mL]",binding to the antibody produced from Immunogen I [1],other results
CCCCCn1cc(C(=O)c2ccc(Cl)c3ccccc23)c2ccccc21 [JWH-398],<< 6.78%,30.31,–,–,"IC50 ng/ml [1, 3]: >> 40 ng/ml"
CCCCCn1cc(C(=O)c2cccc3ccccc23)c2c(O)cccc21 [JWH-018 4-hydroxyindole metabolite],10.62%,29.49,25.51,–,–
CCCCCn1cc(C(=O)c2cccc3ccccc23)c2ccc(O)cc21 [JWH-018 6-hydroxyindole metabolite],132.84%,24.39,2.04,able to bind,–
"O=C(c1cccc2ccccc12)c1cn(CCN2CCOCC2)c2ccccc12 [WIN 55,225 (other name JWH-200), JWH-200]",874.19%,54.02,0.31,–,–
CCCCn1cc(C(=O)c2cccc3ccccc23)c2ccccc21 [JWH-073],291.40%,15.24,0.93,–,–
CCCCCn1cc(C(=O)c2cccc3ccccc23)c2ccccc21 [JWH-018],100.00%,9.29,2.71,able to bind,"IC50 ([1]; first Table 4, Immunogen I): 2.30 ng/mL; % Cross-reactivity ([1]; first Table 4, Immunogen I, JWH-018 = 100): 100.00%; %B/B0 ([2]; JWH-018 standard 0.625 ng/ml): 68%; %B/B0 ([2]; JWH-018 standard 1.25 ng/ml): 53%; %B/B0 ([2]; JWH-018 standard 2.5 ng/ml): 34%; %B/B0 ([2]; JWH-018 standard 5 ng/ml): 25%; %B/B0 ([2]; JWH-018 standard 10 ng/ml): 17%; %B/B0 ([2]; JWH-018 standard 20 ng/ml): 13%; %B/B0 ([2]; JWH-018 standard 40 ng/ml): 10%; IC50 ([2]; Table 3a standard curve, standard concentration which produces 50% B/B0): 1.333 ng/mL"
"O=C(c1cccc2ccccc12)c1c[nH]c2ccccc12 [3-(1-naphthoyl)-1H-Indole, 3-(1-naphthoyl)-1H-indole]",70.57%,99.18,3.84,–,–
CCCCCn1cc(C(=O)c2cccc3ccccc23)c2cc(O)ccc21 [JWH-018 5-hydroxyindole metabolite],694.87%,12.14,0.39,able to bind,–
O=C(O)CCCCn1cc(C(=O)c2cccc3ccccc23)c2ccccc21 [JWH-018 N-pentanoic acid metabolite],645.24%,85.61,0.42,–,–
O=C(c1cccc2ccccc12)c1cn(CCCCCO)c2ccccc12 [JWH-018 N-(5-hydroxypentyl) metabolite],1505.56%,53.38,0.18,–,–
